Measurements as given in publication PMC12959773 (Protein & Cell, 2025).
Substitutions are numbered along the chain they refer to.

Assays:
Assay in all cases: [2H]-cystine uptake, isotope tracking
Type in all cases: cell-based
Conditions in all cases: HEK293 cells transfected with SLC7A13 and SLC3A1; labelled compound
SLC7A13-SLC3A1 complex [1] = molecular target: T1, SLC7A13-SLC3A1 complex (Homo sapiens, UniProt Q8TCU3, F224A)
T1 construct: heterodimeric light/heavy chain transporter, dimer of heterodimers; ectopically expressed in HEK293T / HEK293 cells (Expi293 for cryo-EM); with Amino acid transporter heavy chain SLC3A1
T1 sequence (Q8TCU3 1-470 F224A): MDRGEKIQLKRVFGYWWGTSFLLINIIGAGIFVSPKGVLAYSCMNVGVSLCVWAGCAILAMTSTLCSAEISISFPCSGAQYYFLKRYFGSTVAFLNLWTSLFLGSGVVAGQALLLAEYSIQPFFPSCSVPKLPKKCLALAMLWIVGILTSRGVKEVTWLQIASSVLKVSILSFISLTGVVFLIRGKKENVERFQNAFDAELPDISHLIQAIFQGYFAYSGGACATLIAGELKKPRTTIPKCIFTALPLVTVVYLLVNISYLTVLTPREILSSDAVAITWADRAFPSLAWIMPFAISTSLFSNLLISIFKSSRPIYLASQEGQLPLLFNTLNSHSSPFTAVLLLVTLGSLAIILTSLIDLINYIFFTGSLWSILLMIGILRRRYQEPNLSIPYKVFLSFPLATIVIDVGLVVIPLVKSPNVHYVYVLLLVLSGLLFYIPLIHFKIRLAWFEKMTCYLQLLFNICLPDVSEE
T1 sequence (Q07837 1-685 partner): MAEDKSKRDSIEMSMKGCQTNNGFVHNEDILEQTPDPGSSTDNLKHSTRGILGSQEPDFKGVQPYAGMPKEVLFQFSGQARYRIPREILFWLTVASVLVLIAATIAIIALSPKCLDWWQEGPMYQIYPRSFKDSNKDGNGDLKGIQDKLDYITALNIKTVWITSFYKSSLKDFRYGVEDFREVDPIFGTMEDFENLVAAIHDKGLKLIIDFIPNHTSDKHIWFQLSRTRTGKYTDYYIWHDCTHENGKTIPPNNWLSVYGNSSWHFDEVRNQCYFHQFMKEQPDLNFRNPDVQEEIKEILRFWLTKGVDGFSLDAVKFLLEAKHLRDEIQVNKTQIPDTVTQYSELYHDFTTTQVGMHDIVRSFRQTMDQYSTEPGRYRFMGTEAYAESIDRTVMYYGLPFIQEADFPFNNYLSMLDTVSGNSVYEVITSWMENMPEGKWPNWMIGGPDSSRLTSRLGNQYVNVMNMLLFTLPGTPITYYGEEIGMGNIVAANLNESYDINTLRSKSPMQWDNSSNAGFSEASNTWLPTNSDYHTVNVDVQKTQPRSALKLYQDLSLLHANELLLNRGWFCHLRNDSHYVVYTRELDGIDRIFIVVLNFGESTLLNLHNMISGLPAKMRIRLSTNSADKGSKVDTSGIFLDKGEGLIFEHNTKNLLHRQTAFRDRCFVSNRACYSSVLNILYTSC

SLC7A13-SLC3A1 complex [2] = molecular target: T2, SLC7A13-SLC3A1 complex (Homo sapiens, UniProt Q8TCU3, T225A)
T2 construct: heterodimeric light/heavy chain transporter, dimer of heterodimers; ectopically expressed in HEK293T / HEK293 cells (Expi293 for cryo-EM); with Amino acid transporter heavy chain SLC3A1
T2 sequence (Q8TCU3 1-470 T225A): T1 sequence (Q8TCU3 1-470 F224A) with A224F, T225A
T2 sequence (Q07837 1-685 partner): T1 sequence (Q07837 1-685 partner)

SLC7A13-SLC3A1 complex [3] = molecular target: T3, SLC7A13-SLC3A1 complex (Homo sapiens, UniProt Q8TCU3, S219A)
T3 construct: heterodimeric light/heavy chain transporter, dimer of heterodimers; ectopically expressed in HEK293T / HEK293 cells (Expi293 for cryo-EM); with Amino acid transporter heavy chain SLC3A1
T3 sequence (Q8TCU3 1-470 S219A): T1 sequence (Q8TCU3 1-470 F224A) with S219A, A224F
T3 sequence (Q07837 1-685 partner): T1 sequence (Q07837 1-685 partner)

SLC7A13-SLC3A1 complex [4] = molecular target: T4, SLC7A13-SLC3A1 complex (Homo sapiens, UniProt Q8TCU3, F216A)
T4 construct: heterodimeric light/heavy chain transporter, dimer of heterodimers; ectopically expressed in HEK293T / HEK293 cells (Expi293 for cryo-EM); with Amino acid transporter heavy chain SLC3A1
T4 sequence (Q8TCU3 1-470 F216A): T1 sequence (Q8TCU3 1-470 F224A) with F216A, A224F
T4 sequence (Q07837 1-685 partner): T1 sequence (Q07837 1-685 partner)

## N[C@@H](CSSC[C@H](N)C(=O)O)C(=O)O [cystine]
SLC7A13-SLC3A1 complex [1]
  cystine uptake: mutation in any of the seven SLC7A13-specific residues to alanine significantly reduced SLC7A13’s transporter activities
SLC7A13-SLC3A1 complex [2]
  cystine uptake: mutation in any of the seven SLC7A13-specific residues to alanine significantly reduced SLC7A13’s transporter activities
SLC7A13-SLC3A1 complex [3]
  cystine uptake: mutation in any of the seven SLC7A13-specific residues to alanine significantly reduced SLC7A13’s transporter activities
SLC7A13-SLC3A1 complex [4]
  cystine uptake: mutation in any of the seven SLC7A13-specific residues to alanine significantly reduced SLC7A13’s transporter activities
